From patent US20010034357A1, “Substituted pyridine compounds useful for controlling chemical synaptic transmission” (priority 2000, published 2001)
Read-outs that look alike come from different tables or passages of the source.

How the values were obtained:
[1] = biological target: T1, neuronal nicotinic acetylcholine receptors (Rattus norvegicus, UniProt P09483+P12390); test: [3H]-cytisine binding to neuronal nicotinic acetylcholine receptors, crude synaptic membranes from whole rat brain; settings: [3H]-CYT 1.25 nM, whole rat brain membranes, 60 minutes at 4° C., Cheng and Prusoff correction
T1 construct: crude synaptic membrane preparations from whole rat brain; from tissue; host or cells: whole rat brain, crude synaptic membranes
Procedure: The in vitro protocols for determination of nicotinic acetylcholine channel receptor binding potencies of ligands was determined as follows.
Binding of [^3H]-cytisine ([^3H]-CYT) to neuronal nicotinic acetylcholine receptors was accomplished using crude synaptic membrane preparations from whole rat brain (Pabreza et al., Molecular Pharmacol., 1990, 39:9). Washed membranes were stored at −80° C. prior to use. Frozen aliquots were slowly thawed and resuspended in 20 volumes of buffer (containing: 120 mM NaCl, 5 mM KCl, 2 mM MgCl2, 2 mM CaCl2 and 50 mM Tris-Cl, pH 7.4 @4° C.). After centrifuging at 20,000×g for 15 minutes, the pellets were resuspended in 30 volumes of buffer.
The test compounds were dissolved in water to make 10 mM stock solutions. Each solution was then diluted (1:100) with buffer (as above) and further taken through seven serial log dilutions to produce test solutions from 10^−5 to 10^−11 M.
Homogenate (containing 125-150 µg protein) was added to triplicate tubes containing the range of concentrations of test compound described above and [^3H]-CYT (1.25 nM) in a final volume of 500 μL. Samples were incubated for 60 minutes at 4° C., then rapidly filtered through Whatman GF/B filters presoaked in 0.5% polyethyleneimine using 3×4 mL of ice-cold buffer. The filters are counted in 4 mL of Ecolume® (ICN). Nonspecific binding was determined in the presence of 10 μM (−)-nicotine and values were expressed as a percentage of total binding. IC50 values were determined with a four-parameter non-linear regression and IC50 values were converted to K1 values using the Cheng and Prusoff correction (K1=IC50/(1+[ligand]/Kd of ligand).
Each Example number corresponds to the synthetic Examples described above. […] The lower the Ki value, the more affinity for neuronal nicotinic acetylcholine receptors.

mouse hot plate paradigm = mouse hot plate paradigm (analgesia, latency until tenth jump); assay type: in vivo; settings: mice, intraperitoneal, dosed 30 minutes prior to testing, hot plate 55° C.; for Analgesic MED: minimally effective dose among the doses tested; for Analgesic MED (μmol/kg): footnote symbols for no effect
Procedure: An in vivo protocol was utilized to determine the effectiveness of nicotinic acetylcholine receptor ligands as analgesic agents in the mouse hot plate paradigm.
Separate groups of mice, (n=8/group) were utilized for each dose group. All drugs were administered by the intraperitoneal route of administration. Test drugs were dissolved in water to make a 6.2 mM stock solution. Animals were dosed with this solution (10 mL/kg body weight) for a 62 micromol/kg dose. Lower doses were administered similarly, following serial dilution of the stock solution in half-log increments. Animals were dosed 30 minutes prior to testing in the hot plate. The hot-plate utilized was an automated analgesia monitor (Model #AHP16AN, Omnitech Electronics, Inc. of Columbus, Ohio). The temperature of the hot plate was maintained at 55° C. and a cut-off time of 180 seconds was utilized. A control was run against each compound tested. Latency until the tenth jump was recorded as the dependent measure. An increase in the tenth jump latency relative to the control was considered a significant effect.

T1 sequence (P09483 31-630): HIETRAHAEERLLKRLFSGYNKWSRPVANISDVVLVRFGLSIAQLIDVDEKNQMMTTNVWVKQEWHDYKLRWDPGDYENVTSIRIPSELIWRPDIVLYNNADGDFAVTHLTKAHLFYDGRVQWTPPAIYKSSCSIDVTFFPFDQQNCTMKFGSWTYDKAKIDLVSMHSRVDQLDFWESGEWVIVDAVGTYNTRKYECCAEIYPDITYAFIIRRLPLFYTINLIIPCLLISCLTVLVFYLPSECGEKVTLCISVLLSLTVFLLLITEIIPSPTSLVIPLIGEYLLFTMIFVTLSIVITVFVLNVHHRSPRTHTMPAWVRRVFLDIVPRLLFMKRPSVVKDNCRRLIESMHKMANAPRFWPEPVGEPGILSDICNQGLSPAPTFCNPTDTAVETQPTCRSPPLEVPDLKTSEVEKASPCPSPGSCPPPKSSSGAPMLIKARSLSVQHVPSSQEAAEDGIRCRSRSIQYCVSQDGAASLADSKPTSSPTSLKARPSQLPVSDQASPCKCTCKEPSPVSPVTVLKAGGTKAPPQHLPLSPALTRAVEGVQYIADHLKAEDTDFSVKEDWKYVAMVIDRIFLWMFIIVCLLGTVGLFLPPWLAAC
T1 sequence (P12390 25-500): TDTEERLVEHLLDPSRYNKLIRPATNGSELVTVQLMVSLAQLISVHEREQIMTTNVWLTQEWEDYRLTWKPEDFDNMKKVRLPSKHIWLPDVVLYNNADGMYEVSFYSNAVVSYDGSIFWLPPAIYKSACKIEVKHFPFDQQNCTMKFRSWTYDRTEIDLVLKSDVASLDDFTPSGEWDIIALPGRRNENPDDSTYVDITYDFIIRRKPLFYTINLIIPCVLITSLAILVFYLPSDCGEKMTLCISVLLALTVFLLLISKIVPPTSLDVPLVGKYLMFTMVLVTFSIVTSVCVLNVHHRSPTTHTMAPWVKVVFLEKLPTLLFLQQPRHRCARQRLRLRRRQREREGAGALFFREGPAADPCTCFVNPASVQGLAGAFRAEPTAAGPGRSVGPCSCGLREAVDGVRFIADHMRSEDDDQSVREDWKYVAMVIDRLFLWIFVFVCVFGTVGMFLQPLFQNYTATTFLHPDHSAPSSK

Compound	Ki ([1]; Table 1, read-out: Ki)	Analgesic MED (mouse hot plate paradigm)	Analgesic MED (μmol/kg) (mouse hot plate paradigm)	Ki ([1]; Table 2, read-out: K1 (nm))
5-[(S)-2-methylamino-3-phenyl-1-propyloxy]-2-chloro-3-(4-vinylpyridinyl) pyridine di-p-toluenesulfonic acid [Example 25]	2.61 nM			
Cc1cc(OC[C@H](C)N)cnc1Cl.Cc1ccc(S(=O)(=O)O)cc1 [Example 10, 5-[(S)-2-amino-1-propyloxy]-2-chloro-3-methyl pyridine p-toluenesulfonic acid]	0.525 nM	62 µmol/kg		
CC[C@H](N)COc1ccc(Cl)nc1.Cc1ccc(S(=O)(=O)O)cc1 [Example 15, 5-[(S)-2-amino-1-butyloxy]-2-chloro pyridine p-toluenesulfonic acid]	14.7 nM		* (no effect at 62)	
CCCN[C@H](C)COc1ccc(Cl)nc1 [Example 42, 5-[(R)-2-(1-propyl)amino-1-propyloxy]-2-chloro pyridine p-toluenesulfonic acid]	7530 nM			
C[C@@H](N)COc1cnc(Cl)c(C=Cc2ccncc2)c1 [Example 38, 5-[(R)-2-amino-1-propyloxy]-2-chloro-3-(4-vinylpyridinyl) pyridine p-toluenesulfonic acid]	0.0809 nM			
CN[C@H](C)COc1cnc(Cl)c(Br)c1.Cc1ccc(S(=O)(=O)O)cc1 [Example 34, 5-[(R)-2-methylamino-1-propyloxy]-2-chloro-3-bromo pyridine p-toluenesulfonic acid]	1.48 nM		* (no effect at 62)	
CC(N)CCOc1cnc(Cl)c(Br)c1 (stereo not drawn) [Example 47, 5-(3-Amino-1-butyloxy)-2-chloro-3-bromo-pyridine p-toluenesulfonic acid]				31 nM
CN[C@@H](C)COc1cnc(Cl)c(C)c1.Cc1ccc(S(=O)(=O)O)cc1 [Example 12, 5-[(S)-2-methylamino-1-propyloxy]-2-chloro-3-methyl pyridine p-toluenesulfonic acid]	5.47 nM	62 µmol/kg		
Cc1cc(OCCC(C)N)cnc1Cl (stereo not drawn) [Example 49, 5-(3-Amino-1-butyloxy)-2-chloro-3-methyl-pyridine p-toluenesulfonic acid]				25 nM
C[C@H](COc1ccc(F)nc1)N(C)C.Cc1ccc(S(=O)(=O)O)cc1 [Example 30, 5-[(R)-2-dimethylamino-1-propyloxy]-2-fluoro pyridine p-toluenesulfonic acid]	70.2 nM		* (no effect at 62)	
C[C@H](N)COc1ccc(Cl)nc1.Cc1ccc(S(=O)(=O)O)cc1 [Example 1, 5-[(S)-2-amino-1-propyloxy]-2-chloro pyridine p-toluenesulfonic acid]	4.51 nM	62 µmol/kg		
Cc1cc(OC[C@@H](C)N(C)C)cnc1Cl.Cc1ccc(S(=O)(=O)O)cc1 [Example 36, 5-[(R)-2-dimethylamino-1-propyloxy]-2-chloro-3-methyl pyridine p-toluenesulfonic acid]	7.2 nM		* (no effect at 62)	
C[C@H](COc1cnc(Cl)c(Br)c1)N(C)C [Example 33, 5-[(R)-2-dimethylamino-1-propyloxy]-2-chloro-3-bromo pyridine p-toluenesulfonic acid]	11.9 nM			
CN[C@H](C)COc1ccc(Cl)nc1.Cc1ccc(S(=O)(=O)O)cc1 [Example 28, 5-[(R)-2-methylamino-1-propyloxy]-2-chloropyridine p-toluenesulfonic acid]	5.87 nM	62 µmol/kg		
C[C@@H](COc1ccc(F)nc1)N(C)C.Cc1ccc(S(=O)(=O)O)cc1 [Example 5, 5-[(S)-2-dimethylamino-1-propyloxy]-2-fluoro pyridine p-toluenesulfonic acid]	100 nM		* (no effect at 62)	
CC(N)CCOc1ccc(Cl)nc1 (stereo not drawn) [Example 44, 5-(3-Amino-1-butyloxy)-2-chloropyridine p-toluenesulfonate]				20 nM
CN(C)[C@H](COc1cnc(Cl)c(Br)c1)Cc1ccccc1 [Example 22, 5-[(S)-2-dimethylamino-3-phenyl-1-propyloxy]-2-chloro-3-bromo pyridine p-toluenesulfonic acid]	319 nM			

Compound	Ki ([1]; Table 1, read-out: Ki)	Analgesic MED (mouse hot plate paradigm)	Analgesic MED (μmol/kg) (mouse hot plate paradigm)	Ki ([1]; Table 2, read-out: K1 (nm))
CC(COc1ccc(Cl)nc1)N(C)C (stereo in doubt) [Example 27, 5-[(S)-2-dimethylamino-1-propyloxy]-2-chloro pyridine p-toluenesulfonic acid]			* (no effect at 62)	
CN[C@H](C)COc1cnc(Cl)c(C)c1.Cc1ccc(S(=O)(=O)O)cc1 [Example 37, 5-[(R)-2-methylamino-1-propyloxy]-2-chloro-3-methyl pyridine p-toluenesulfonic acid]	0.565 nM		* (no effect at 62)	
5-[(R)-2-methylamino-1-propyloxy]-2-chloro-3-(4-vinylpyridinyl) pyridine p-toluenesulfonic acid [Example 40]	0.0757 nM			
C[C@@H](COc1cnc(Cl)c(Br)c1)N(C)C.Cc1ccc(S(=O)(=O)O)cc1 [Example 8, 5-[(S)-2-dimethylamino-1-propyloxy]-2-chloro-3-bromo pyridine p-toluenesulfonic acid]	30.8 nM	62 µmol/kg		
CN[C@@H](C)COc1cnc(Cl)c(Br)c1.Cc1ccc(S(=O)(=O)O)cc1 [Example 9, 5-[(S)-2-methylamino-1-propyloxy]-2-chloro-3-bromo pyridine p-toluenesulfonic acid]	10.9 nM		** (no effect at 6.2)	
CN[C@@H](C)COc1ccc(F)nc1.Cc1ccc(S(=O)(=O)O)cc1 [Example 6, 5-[(S)-2-methylamino-1-propyloxy]-2-fluoro pyridine p-toluenesulfonic acid]	68.9 nM		* (no effect at 62)	
C[C@@H](N)COc1cnc(Cl)c(Br)c1.Cc1ccc(S(=O)(=O)O)cc1 [Example 32, 5-[(R)-2-amino-1-propyloxy]-2-chloro-3-bromo pyridine p-toluenesulfonic acid]	1.54 nM	62 µmol/kg		
CC(N)CCOc1ccc(F)nc1 (stereo not drawn) [Example 43, 5-(3-Amino-1-butyloxy)-2-fluoro pyridine p-toluenesulfonic acid]				122 nM
CC[C@H](N)COc1ccc(F)nc1 [Example 16, 5-[(S)-2-amino-1-butyloxy]-2-fluoro pyridine p-toluenesulfonic acid]	39.5 nM			
C[C@@H](COc1ccc(Cl)nc1)N(C)C.Cc1ccc(S(=O)(=O)O)cc1 [Example 2, 5-[(S)-2-dimethylamino-1-propyloxy]-2-chloro pyridine p-toluenesulfonic acid]		62 µmol/kg		
Cc1cc(OCCC(C)N(C)C)cnc1Cl (stereo not drawn) [Example 48, 5-(3-dimethylamino-1-butyloxy]-2-chloro-methylpyridine p-toluenesulfonic acid]				1.3 nM
5-[(S)-2-amino-1-butyloxy]-2-chloro-3-(4-vinylpyridinyl) pyridine di-p-toluenesulfonic acid [Example 19]	0.18 nM			
CC[C@@H](COc1ccc(F)nc1)NC [Example 17, 5-[(S)-2-methylamino-1-butyloxy]-2-fluoro pyridine p-toluenesulfonic acid]	225 nM			
N[C@H](COc1cnc(Cl)c(Br)c1)Cc1ccccc1 [Example 21, 5-[(S)-2-amino-3-phenyl-1-propyloxy]-2-chloro-3-bromo pyridine p-toluenesulfonic acid]	102 nM			
CC(CCOc1ccc(Cl)nc1)N(C)C (stereo not drawn) [Example 45, 5-(3-Dimethylamino-1-butyloxy]-2-chloro pyridine p-toluenesulfonic acid]				18 nM
CC(CCOc1cnc(Cl)c(Br)c1)N(C)C (stereo not drawn) [Example 46, 5-(3-Dimethylamino-1-butyloxy)-2-chloro-3-bromopyridine p-toluenesulfonic acid]				3.1 nM
CCN[C@H](C)COc1ccc(Cl)nc1 [Example 41, 5-[(R)-2-ethylamino-1-propyloxy]-2-chloro pyridine p-toluenesulfonic acid]	2310 nM			
